Measured values from US9987333B2, “Method for suppressing malignant tumor metastasis” (Shionogi & Co., Ltd., priority 2012, dated 2018).

Assays:
[1] = system: Mouse melanoma B16-F10; assay: Tail vein injection metastasis test, mouse melanoma B16-F10, CDDP pretreatment with angiotensin II receptor antagonists (Example 2); format: in vivo, mice; conditions: 14 days; for exacerbation of lung metastasis caused by CDDP: oral, with CDDP 5 mg/kg, valsartan 40, losartan 30, olmesartan medoxomil 5, azilsartan 10, candesartan cilexetil 8, irbesartan 100 mg/kg
Method: Eight-week-old male C57BL6 mice (purchased from Japan SLC, Inc.) were used. Mouse melanoma B16-F10 was purchased from ATCC, and cultured in DMEM (Life Technologies Corp.) containing 10% FCS under 5% CO2 at 37° C. The cells in a subconfluent state were treated with EDTA-trypsin, centrifuged, and then suspended in serum free DMEM so as to be 5×10^6 cells/mL. The melanoma cell suspension (100 μL/mouse, […]) was injected to the tail vein of the mice. As pretreatment, 5 mg/kg of cisplatin (CDDP) was injected to the tail vein of the mice 2 days before the injection of the melanoma cells into the tail vein. As an angiotensin II receptor antagonist, used were valsartan (trade name: Diovan made by Novartis Pharma K.K.), losartan (trade name: Nu-Lotan made by MSD K.K.), olmesartan medoxomil (trade name: Olmetecmade by Daiichi Sankyo Co., Ltd.), azilsartan (trade name: Azilva made by Takeda Pharmaceutical Co., Ltd.), candesartan cilexetil (trade name: Blopress made by Takeda Pharmaceutical Co., Ltd.), and irbesartan (trade name: Avapro made by Sumitomo Dainippon Pharma Co., Ltd.). To the angiotensin II receptor antagonist group, a 0.5% methylcellulose aqueous solution prepared so as to contain valsartan (40 mg/kg), losartan (30 mg/kg), olmesartan medoxomil (5 mg/kg), azilsartan (10 mg/kg), candesartan cilexetil (8 mg/kg), or irbesartan (100 mg/kg) was orally given for 4 days before the start of the experiment (before the injection of tumor cells to mice). After the injection of tumor cells, the oral intake of methylcellulose aqueous solutions containing telmisartan or pitavastatin in the above doses in the angiotensin II receptor antagonist group and the pitavastatin group was continued until the end of the experiment. To the control group, a 0.5% methylcellulose aqueous solution not containing any of the agents was orally given before the start of the experiment. The sample size of each group was n=5. The condition of the lung metastasis of the tumor cells 2 weeks (14 days) after the tumor cell injection was observed.

[2] = system: colon cancer cells; conditions: Non Patent Literature 24; cited from earlier work
[3] = system: renal cell carcinoma; conditions: Non Patent Literature 23; cited from earlier work
[4] = system: Human lung arterial microvascular endothelial cells; assay: Adhesion of A549-GFP human lung cancer cells to human lung arterial microvascular endothelial cells in co-culture (Example 3); format: cell-based; conditions: 3 h co-culture
Method: Human lung arterial microvascular endothelial cells were cultured to confluence, losartan was added thereto (to a final concentration of 5×10^−6 M), and 2 hours later, phosphate buffered saline (PBS) or cisplatin (CDDP) was added (to a final concentration of 5 μM). An hour later, the culture medium was replaced with a fresh culture medium (Medium 199 containing 1% BSA). To this, a suspension of fluorescently-labeled A549 human lung cancer cells (1×10^5 cells) was added, and the cells were co-cultured for 3 hours. After the co-culture, non-adherent cancer cells were washed out with cold PBS, and then 15-minute fixation with 4% formalin was performed. […] In FIG. 9A, spots which appear gray (actually green) are fluorescently-labeled A549-GFP human lung cancer cells. In FIG. 9B, white bars are for the control (without losartan pretreatment), and black bars are for the cases with losartan pretreatment. The vertical axis indicates the number of cancer cells that adhered (*: P<0.05).
Human lung arterial microvascular endothelial cells (manufactured by Lonza Japan) were cultured to confluence, losartan was added thereto (to a final concentration of 5×10^−6 M), and 2 hours later, phosphate buffered saline (PBS) or cisplatin (CDDP) was added (to a final concentration of 5 μM). […]

[5] = system: Mouse melanoma B16-F10; assay: Tail vein injection metastasis test, mouse melanoma B16-F10 (Example 1); format: in vivo, mice
Method: Six-week-old male C56BL/6N mice (purchased from Japan SLC, Inc.) were used. Mouse melanoma B16-F10 was purchased from ATCC, and cultured in DMEM (Life Technologies Corp.) containing 10% FCS under 5% CO2 at 37° C. The cells in a subconfluent state were treated with EDTA-trypsin, centrifuged, and then suspended in serum free DMEM so as to be 5×10^6 cells/mL. The melanoma cell suspension (100 μL/mouse, 5×10^5 cells) was injected to the tail vein of the mice.
For the CDDP group, 5 mg/kg of CDDP was injected, as pretreatment, to the tail vein of the mice 2 days before the injection of the melanoma cells into the tail vein. For the control group, an osmotic pump containing 0.9% physiological saline was subcutaneously implanted in the back of each mouse on the day before the injection of the melanoma cells into the tail vein. Similarly, for the adrenomedullin group, an osmotic pump containing adrenomedullin prepared for administration at 0.05 μg/kg/min was subcutaneously implanted into each mouse, and for the ghrelin group, an osmotic pump containing ghrelin prepared for administration at 0.08 μg/kg/min was subcutaneously implanted into each mouse. The tail vein injection of the melanoma cells was performed as above and the drug administration was continued for 2 weeks. The condition of the lung metastasis of the tumor cells 2 weeks after the tumor cell injection was observed (FIG. 1).
To the angiotensin II receptor antagonist group, a 0.5% methylcellulose aqueous solution prepared so as to contain 2 mg/kg or 8 mg/kg of telmisartan was orally given for 4 days before the start of the experiment (before the injection of tumor cells to mice), and to the pitavastatin group, a 0.5% methylcellulose aqueous solution prepared so as to contain 20 mg/kg of pitavastatin was orally given for the same period. After the injection of tumor cells, the oral intake of methylcellulose aqueous solutions containing telmisartan or pitavastatin in the above doses in the angiotensin II receptor antagonist group and the pitavastatin group was continued until the end of the experiment. To the control group, a 0.5% methylcellulose aqueous solution not containing any of the agents was orally given before the start of the experiment. Also, as reference example, angiotensin II was administered at 1 μg/kg/min, and then the experiment was conducted in the same way. The sample size of each group was n=5.
In contrast, in both of the telmisartan 2 mg/kg group and the telmisartan 8 mg/kg group, the exacerbation by CDDP was suppressed. The telmisartan 2 mg/kg (CDDP group) and the telmisartan 8 mg/kg (CDDP group) shown in FIGS. 3 and 4 are groups to which 2 mg/kg or 8 mg/kg of telmisartan was given in the manner described above before CDDP was injected as pretreatment. The pitavastatin (CDDP group) is the group to which pitavastatin was given in the manner described above before CDDP was injected as pretreatment.

[6] = system: tumor; conditions: Non Patent Literature 27; cited from earlier work
[7] = system: E select in; conditions: Non Patent Literature 29; cited from earlier work
[8] = system: human umbilical vein endothelial cells (HUVECs); conditions: Non Patent Literature 29; cited from earlier work

## CCCCC(=O)N(Cc1ccc(-c2ccccc2-c2nnn[nH]2)cc1)[C@H](C(=O)O)C(C)C [valsartan]
[1]
  exacerbation of lung metastasis caused by CDDP: significantly suppressed

## CCCc1nc(C(C)(C)O)c(C(=O)OCc2oc(=O)oc2C)n1Cc1ccc(-c2ccccc2-c2nnn[nH]2)cc1 [olmesartan medoxomil]
[1]
  exacerbation of lung metastasis caused by CDDP: significantly suppressed

## CCCCc1nc(Cl)c(CO)n1Cc1ccc(-c2ccccc2-c2nn[nH]n2)cc1 [losartan]
[2]
  liver metastasis of colon cancer cells: suppressed
[3]
  lung metastasis of renal cell carcinoma increased by cyclosporin (Cs): suppressed
[4]; losartan 5×10^−6 M 2 hours before 5 μM CDDP pretreatment
  adhesion of cancer cells to the vascular endothelial cells: significantly suppressed
[1]
  exacerbation of lung metastasis caused by CDDP: significantly suppressed

## [NH2][Pt]([NH2])([Cl])[Cl] [CDDP, cisplatin]
[5]; CDDP 5 mg/kg tail vein 2 days before melanoma injection, compared to the control group
  lung metastasis of melanoma (number of nodules formed in the lungs): significantly increased
[4]; 1-hour pretreatment with 5 μM CDDP
  number of cancer cells adhered to the vascular endothelial cells: increased
[1]; CDDP 5 mg/kg tail vein 2 days before melanoma injection, vs control
  tumor metastasis (number of lung nodules): augmented

## CCCCC1=NC2(CCCC2)C(=O)N1Cc1ccc(-c2ccccc2-c2nnn[nH]2)cc1 [irbesartan]
[1]
  exacerbation of lung metastasis caused by CDDP: significantly suppressed

## CCCc1nc2c(C)cc(-c3nc4ccccc4n3C)cc2n1Cc1ccc(-c2ccccc2C(=O)O)cc1 [telmisartan]
[5]; telmisartan 2 mg/kg orally before CDDP (5 mg/kg) pretreatment, 14 days
  exacerbation of lung metastasis by CDDP: suppressed
[5]; telmisartan 8 mg/kg orally before CDDP (5 mg/kg) pretreatment, 14 days
  exacerbation of lung metastasis by CDDP: suppressed
[5]; telmisartan 8 mg/kg orally, alone, 14 days after tumor cell injection, vs control
  lung metastasis of melanoma (number of nodules formed in the lungs): significantly suppressed

## O=C(O)C[C@H](O)C[C@H](O)/C=C/c1c(C2CC2)nc2ccccc2c1-c1ccc(F)cc1 [pitavastatin]
[5]; pitavastatin 20 mg/kg orally before CDDP (5 mg/kg) pretreatment, 14 days
  exacerbation of the lung metastasis by CDDP: significantly suppressed

## CCOc1nc2cccc(C(=O)OC(C)OC(=O)OC3CCCCC3)c2n1Cc1ccc(-c2ccccc2-c2nn[nH]n2)cc1 (stereo not shown) [candesartan cilexetil]
[1]
  exacerbation of lung metastasis caused by CDDP: significantly suppressed
[6]
  angiogenesis and metastasis of a tumor: suppressed

## CCOc1nc2cccc(C(=O)O)c2n1Cc1ccc(-c2ccccc2-c2nc(=O)o[nH]2)cc1 [azilsartan]
[1]
  exacerbation of lung metastasis caused by CDDP: significantly suppressed

## CC[C@H](C)C(=O)O[C@H]1C[C@@H](C)C=C2C=C[C@H](C)[C@H](CC[C@@H]3C[C@@H](O)CC(=O)O3)[C@H]21 [lovastatin]
[7]
  E select in expression: inhibits
[8]
  adhesion of colon cancer cells to human umbilical vein endothelial cells (HUVECs): inhibits
